Data taken from patent US20030215462A1, “Use of UGT inhibitors to increase bioavailability” (priority 2001, published 2003).
Where “and” joins values, the source holds several entries; their conditions need not be identical. Identical values can stand only once.

How the values were obtained:
UGT1A3 = target: T1, UGT1A3 (Homo sapiens, UniProt P35503); assay: Inhibition of raloxifene glucuronidation by recombinant UGT1A3 Supersomes; conditions: human; for activity at 15 min, 10 µM: inhibitor 10 μM; for activity at 15 min, 25 µM: inhibitor 25 μM; for activity at 15 min, 50 µM: inhibitor 50 μM
T1 sequence (P35503 29-534): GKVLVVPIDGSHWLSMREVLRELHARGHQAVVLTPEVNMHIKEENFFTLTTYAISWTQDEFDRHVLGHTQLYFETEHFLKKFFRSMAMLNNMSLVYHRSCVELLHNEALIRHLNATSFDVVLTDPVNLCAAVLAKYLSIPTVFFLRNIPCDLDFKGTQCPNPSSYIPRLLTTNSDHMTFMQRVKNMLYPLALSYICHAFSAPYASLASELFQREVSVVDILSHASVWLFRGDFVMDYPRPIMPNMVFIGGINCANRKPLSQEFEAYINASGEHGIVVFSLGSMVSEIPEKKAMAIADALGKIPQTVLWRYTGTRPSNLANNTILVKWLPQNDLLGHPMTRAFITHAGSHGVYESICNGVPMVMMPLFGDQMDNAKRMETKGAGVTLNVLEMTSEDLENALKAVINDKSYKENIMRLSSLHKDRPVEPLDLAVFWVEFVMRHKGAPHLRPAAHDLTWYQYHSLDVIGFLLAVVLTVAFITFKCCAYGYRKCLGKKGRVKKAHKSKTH
Method: Compounds were eluted using a binary solvent gradient system. Solvent A was water brought to pH 8 with NH4OH. Solvent B was methanol. Solvent flow rate was 1 ml/min and the column temperature was maintained at 50° C. Detection was at 280 nm. […] The system was then returned to the initial conditions and equilibrated for 3 min.

[1] = test system: UGT enzymes of human liver microsomes; assay: Inhibition of raloxifene glucuronidation (G1, G2) in human liver microsomes; assay type: biochemical
Source text: Compounds were eluted using a binary solvent gradient system. […] Solvent B was methanol. […] Detection was at 280 nm.

[2] = target: T2, UGT enzymes of human liver microsomes; assay: Inhibition of 7-HFC glucuronidation in human liver microsomes; assay type: biochemical; conditions: for % of control metabolism (SD, n = 3), 7-HFC glucuronidation: human liver microsomes 100 μg/ml
T2 construct: percentage of control metabolism, 7-HFC glucuronidation; percentage of control metabolism, 7-HFC glucuronidation

[3] = target: T3, UGT enzymes of human liver microsomes (Homo sapiens, UniProt P16662); assay: Inhibition of zidovudine glucuronidation in human liver microsomes; assay type: biochemical; conditions: liver lot 062101
T3 construct: residual metabolism (percentage of control), zidovudine glucuronidation; other: liver lot 062101; residual metabolism (percentage of control), zidovudine glucuronidation; residual metabolism (percentage of control)
T3 sequence (P16662 1-529): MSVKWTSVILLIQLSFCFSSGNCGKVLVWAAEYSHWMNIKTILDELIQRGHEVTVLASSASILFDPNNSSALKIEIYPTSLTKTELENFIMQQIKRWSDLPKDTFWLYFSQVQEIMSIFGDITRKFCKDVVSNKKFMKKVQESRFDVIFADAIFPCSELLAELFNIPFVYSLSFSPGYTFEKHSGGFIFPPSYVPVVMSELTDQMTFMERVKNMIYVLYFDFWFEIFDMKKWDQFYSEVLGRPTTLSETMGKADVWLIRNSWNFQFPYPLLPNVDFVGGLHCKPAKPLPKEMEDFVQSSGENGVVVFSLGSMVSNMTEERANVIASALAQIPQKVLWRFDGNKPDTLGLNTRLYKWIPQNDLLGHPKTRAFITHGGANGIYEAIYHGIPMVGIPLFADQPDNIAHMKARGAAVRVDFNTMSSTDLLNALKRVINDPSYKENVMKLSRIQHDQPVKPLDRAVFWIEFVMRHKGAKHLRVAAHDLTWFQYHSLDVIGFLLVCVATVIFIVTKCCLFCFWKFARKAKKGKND
Method: Compounds were eluted using a binary solvent gradient system where solvent A was dilute phosphoric acid (pH 3) and solvent B was acetonitrile.
Standardized incubations utilized 500 μM zidovudine substrate, 1 mg/ml microsomal protein, 5 mM UDPGA and a 30 min incubation time. […] Int.

UGT1A9 = target: T4, UGT1A9 (Homo sapiens, UniProt O60656); assay: Inhibition of raloxifene glucuronidation by recombinant UGT1A9 Supersomes; conditions: for Inhibition of raloxifene glucuronidation, UGT1A9, first line per inhibitor (G1): first line (G1, metabolite not given); for Inhibition of raloxifene glucuronidation, UGT1A9, first line per inhibitor (G1) / Inhibition of raloxifene glucuronidation, UGT1A9, second line per inhibitor (G2): raloxifene 50 μM, 250 μg/ml Supersomes, 1 mM UDPGA, 15 min; for activity at 15 min, 5 µM / activity at 15 min, 10 µM / activity at 15 min, 25 µM / activity at 15 min, 50 µM: human, Supersomes with recombinant human UGT1A9, pH 7.5, probe raloxifene 50 μM; for Inhibition of raloxifene glucuronidation, UGT1A9, second line per inhibitor (G2): second line (G2, metabolite not given)
T4 sequence (O60656 26-530): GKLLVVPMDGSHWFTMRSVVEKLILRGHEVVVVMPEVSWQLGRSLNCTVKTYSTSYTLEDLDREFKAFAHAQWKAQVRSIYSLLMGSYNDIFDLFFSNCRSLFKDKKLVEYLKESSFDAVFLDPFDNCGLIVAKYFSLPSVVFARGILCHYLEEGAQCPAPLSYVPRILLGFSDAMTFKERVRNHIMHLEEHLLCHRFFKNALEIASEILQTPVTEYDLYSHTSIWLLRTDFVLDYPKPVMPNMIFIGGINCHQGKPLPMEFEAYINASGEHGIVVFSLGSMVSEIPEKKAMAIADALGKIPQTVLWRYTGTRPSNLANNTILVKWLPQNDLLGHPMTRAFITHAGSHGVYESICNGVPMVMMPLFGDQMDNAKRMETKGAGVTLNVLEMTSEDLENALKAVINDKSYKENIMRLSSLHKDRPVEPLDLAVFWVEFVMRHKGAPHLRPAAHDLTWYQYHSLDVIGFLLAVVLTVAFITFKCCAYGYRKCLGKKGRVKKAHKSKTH

[4] = Supersomes with recombinant human UGT1A3, pH 7.5, probe raloxifene 50 μM, formation of glucuronide G1, % of control metabolism, raloxifene G1, UGT1A3
[5] = Supersomes with recombinant human UGT1A3, pH 7.5, probe raloxifene 50 μM, formation of glucuronide G2, % of control metabolism, raloxifene G2, UGT1A3
[6] = recombinant UGT1A3 Supersomes, pH 7.5, probe raloxifene 50 μM (formation of glucuronide G1), Inhibition of raloxifene glucuronidation, G1, UGT1A3, G1, raloxifene 50 μM, 250 μg/ml Supersomes, 1 mM UDPGA, 15 min
[7] = recombinant UGT1A3 Supersomes, pH 7.5, probe raloxifene 50 μM (formation of glucuronide G2), Inhibition of raloxifene glucuronidation, G2, UGT1A3, G2, raloxifene 50 μM, 250 μg/ml Supersomes, 1 mM UDPGA, 15 min
[8] = liver lot 032101, inhibitor 10 μM
[9] = liver lot 062101, inhibitor 10 μM
[10] = liver lot 083000, inhibitor 10 μM
[11] = raloxifene 50 μM, inhibitor 10 μM
[12] = raloxifene 50 μM, inhibitor 25 μM
[13] = raloxifene 50 μM, inhibitor 50 μM
[14] = raloxifene 50 μM, inhibitor 100 μM

O=C(OC[C@H]1O[C@@H](OC(=O)c2cc(O)c(O)c(OC(=O)c3cc(O)c(O)c(O)c3)c2)[C@H](OC(=O)c2cc(O)c(O)c(OC(=O)c3cc(O)c(O)c(O)c3)c2)[C@@H](OC(=O)c2cc(O)c(O)c(OC(=O)c3cc(O)c(O)c(O)c3)c2)[C@@H]1OC(=O)c1cc(O)c(O)c(OC(=O)c2cc(O)c(O)c(O)c2)c1)c1cc(O)c(O)c(OC(=O)c2cc(O)c(O)c(O)c2)c1 [Tannic acid]
activity at 15 min, 10 µM (UGT1A3; [4]): 48%
activity at 15 min, 25 µM (UGT1A3; [4]): 25%
activity at 15 min, 50 µM (UGT1A3; [4]): 3%
activity at 15 min, 10 µM (UGT1A3; [5]): 64%
activity at 15 min, 25 µM (UGT1A3; [5]): 38%
activity at 15 min, 50 µM (UGT1A3; [5]): 5%
activity at 15 min, 10 µM (UGT1A3; [6]): 48%
activity at 15 min, 25 µM (UGT1A3; [6]): 25%
activity at 15 min, 50 µM (UGT1A3; [6]): 3%
activity at 15 min, 10 µM (UGT1A3; [7]): 64%
activity at 15 min, 25 µM (UGT1A3; [7]): 38%
activity at 15 min, 50 µM (UGT1A3; [7]): 5%
% of control metabolism, raloxifene G1 [1, 8]: 51 (4) %
% of control metabolism, raloxifene G2 [1, 8]: 59 (3) %
% of control metabolism, raloxifene G1 [1, 9]: 61 (4) %
% of control metabolism, raloxifene G2 [1, 9]: 54 (4) %
% of control metabolism, raloxifene G1 [1, 10]: 27 (1) %
% of control metabolism, raloxifene G2 [1, 10]: 30 (1) %
% of control metabolism, raloxifene G1 [1, 11]: 27 (1) %
% of control metabolism, raloxifene G2 [1, 11]: 30 (1) %
% of control metabolism, raloxifene G1 [1, 12]: 7 (1) %
% of control metabolism, raloxifene G2 [1, 12]: 12 (2) %
% of control metabolism, raloxifene G1 [1, 13]: 0 (0), 0 (0) %
% of control metabolism, raloxifene G2 [1, 13]: 0 (0), 0 (0) %
% of control metabolism, raloxifene G1 [1, 14]: 0 (0), 0 (0) %
% of control metabolism, raloxifene G2 [1, 14]: 0 (0), 0 (0) %
IC50 ([2]; 7-HFC 50 μM, 1 mM UDPGA, 15 min): 10 µM
percentage of control metabolism, 7-HFC glucuronidation ([2]; inhibitor 25 μM): 14 (1) % and 18 (0) %
% of control metabolism (SD, n = 3), 7-HFC glucuronidation ([2]; inhibitor 25 μM, 7-HFC 50 μM, 15 min): 14 (1), % and 18 (0) %
percentage of control metabolism, 7-HFC glucuronidation ([2]; inhibitor 50 μM): 2 (0) %
% of control metabolism (SD, n = 3), 7-HFC glucuronidation ([2]; inhibitor 50 μM, 7-HFC 50 μM, 15 min): 2 (0) %
percentage of control metabolism, 7-HFC glucuronidation ([2]; inhibitor 100 μM): 0 (0) %
% of control metabolism (SD, n = 3), 7-HFC glucuronidation ([2]; inhibitor 100 μM, 7-HFC 50 μM, 15 min): 0 (0) %
percentage of control metabolism, 7-HFC glucuronidation ([2]; inhibitor 200 μM): 0 (0) %
% of control metabolism (SD, n = 3), 7-HFC glucuronidation ([2]; inhibitor 200 μM, 7-HFC 50 μM, 15 min): 0 (0) %
percentage of control metabolism, 7-HFC glucuronidation ([2]; inhibitor 500 μM): 0 (0) %
% of control metabolism (SD, n = 3), 7-HFC glucuronidation ([2]; inhibitor 500 μM, 7-HFC 50 μM, 15 min): 0 (0) %
residual metabolism (percentage of control), zidovudine glucuronidation ([3]; inhibitor 50 μM): 54 (2) % and 50 (4) %
residual metabolism (percentage of control), zidovudine glucuronidation ([3]; inhibitor 100 μM): 42 (2) % and 37 (4) %
residual metabolism (percentage of control), zidovudine glucuronidation ([3]; inhibitor 200 μM): 20 (2) %
Inhibition of raloxifene glucuronidation, UGT1A9, first line per inhibitor (G1) (UGT1A9; inhibitor 5 μM): 53 (2)
Inhibition of raloxifene glucuronidation, UGT1A9, first line per inhibitor (G1) (UGT1A9; inhibitor 50 μM): 17 (0)
activity at 15 min, 5 µM (UGT1A9; formation of glucuronide G1, % of control metabolism, raloxifene G1, UGT1A9, inhibitor 5 μM): 53%
activity at 15 min, 10 µM (UGT1A9; formation of glucuronide G1, % of control metabolism, raloxifene G1, UGT1A9, inhibitor 10 μM): 44%
activity at 15 min, 25 µM (UGT1A9; formation of glucuronide G1, % of control metabolism, raloxifene G1, UGT1A9, inhibitor 25 μM): 21%
activity at 15 min, 50 µM (UGT1A9; formation of glucuronide G1, % of control metabolism, raloxifene G1, UGT1A9, inhibitor 50 μM): 17%
activity at 15 min, 5 µM (UGT1A9; formation of glucuronide G2, % of control metabolism, raloxifene G2, UGT1A9, inhibitor 5 μM): 76%
activity at 15 min, 10 µM (UGT1A9; formation of glucuronide G2, % of control metabolism, raloxifene G2, UGT1A9, inhibitor 10 μM): 45%
activity at 15 min, 25 µM (UGT1A9; formation of glucuronide G2, % of control metabolism, raloxifene G2, UGT1A9, inhibitor 25 μM): 19%
activity at 15 min, 50 µM (UGT1A9; formation of glucuronide G2, % of control metabolism, raloxifene G2, UGT1A9, inhibitor 50 μM): 42%
Inhibition of raloxifene glucuronidation, UGT1A9, second line per inhibitor (G2) (UGT1A9; inhibitor 5 μM): 76 (3)
Inhibition of raloxifene glucuronidation, UGT1A9, second line per inhibitor (G2) (UGT1A9; inhibitor 10 μM): 45 (1)
Inhibition of raloxifene glucuronidation, UGT1A9, second line per inhibitor (G2) (UGT1A9; inhibitor 25 μM): 19 (3)
Inhibition of raloxifene glucuronidation, UGT1A9, second line per inhibitor (G2) (UGT1A9; inhibitor 50 μM): 42 (5)
